Assay results reported in article PMC4104781 (Journal of controlled release : official journal of the …, 2013).

Assays:
Spectrometric = assay type: physicochemical; conditions: aqueous buffer solutions at various pH, pH 3.5
[1] = assay type: physicochemical
[2] = TPT lactone-carboxylate interconversion; assay type: physicochemical; conditions: 37 °C, aqueous buffers pH 5.92-7.67, fit of kinetic interconversion model
[3] = DSPC/DSPE-PEG2K bilayer, model fit of release profiles
[4] = DSPC/DSPE-PEG2K liposomes, 38.7 ± 0.1 °C, model fit over pH 3.35-7.67

CC[C@@]1(O)C(=O)OCc2c1cc1n(c2=O)Cc2cc3c(CN(C)C)c(O)ccc3nc2-1 [TPT, topotecan]
pKa (Spectrometric): 6.56 ± 0.12
binding to the phospholipid bilayer, anionic carboxylate form (Ca) [1, 3]: negligible binding
binding to the phospholipid bilayer, zwitterionic lactone (Ln) [1, 3]: negligible binding
membrane partition coefficient, lactone species with unionized phenol (Lp) [1, 3]: 61.7 ± 5.9
bilayer transport of the anionic carboxylate form (Ca) [1, 4]: impermeable
transport rate constant, cationic lactone species (Lp) [1, 4]: 0.51 ± 0.07 h⁻¹
transport rate constant, ring-opened carboxylate zwitterion (Cn) [1, 4]: 5.7 ± 0.5 h⁻¹
transport rate constant, zwitterionic lactone (Ln) [1, 4]: 33.9 ± 4.6 h⁻¹
base-catalyzed ring-closing rate constant (kc,OH) [2]: 7.4 ± 0.3 × 10^8 mol^−1hr^−1
carboxylic acid/lactone equilibrium constant (K0) [2]: 1.98 ± 0.07 × 10^−3
